Each molecule was assayed on human liver microsomes, metabolic stability half-life (assay: NCATS Human Liver Microsomal (HLM) Stability Profiling). Details: higher = more stable; screened at 1 µM (by protocol).
Description: Assay submitter (PI): Dr. Pranav Shah
NIH Center for Advancing Translational Sciences
Pharmacokinetic issues were the leading cause of drug attrition, accounting for approximately 40% of all cases before the turn of the century. To this end, several high-throughput in vitro assays like microsomal stability have been developed to evaluate the pharmacokinetic profiles of compounds in early stages of drug discovery. At NCATS, a single-point rat liver microsomal (RLM) stability assay is used as a Tier I assay, while human liver microsomal (HLM) stability is employed as a Tier II assay. While it is beneficial to have compound libraries screened for HLM stability, the increasing magnitude of hits routinely generated, and the time- and re-source-intensive nature of the assay makes it important to find alternatives. One strategy is to rely on in silico models that have been developed using data generated from these assays. Herein, we describe the development of an HLM stability prediction model using our in-house dataset of ~7,000 compounds, employing both traditional and advanced machine learning methods. Additionally, the strong correlation between our RLM and HLM data was further reinforced by the fact that our HLM model performance improved after adding RLM stability predictions as an input descriptor. […] The best model along with a subset of our dataset has been made publicly accessible on the NCATS@ADME website for the benefit of the greater drug discovery community.
Microsomal Stability Assay
The substrate depletion method, also called the in vitro t1/2 method was used to analyze test compounds. Incubation and liquid handling were carried out using a previously described method (Shah et al., 2016). Briefly, each reaction mixture (110 µL) consisted of a test article (1 µM), human liver microsomes (0.5 mg/mL), and NADPH regenerating system in phosphate buffer at pH 7.4. Samples were incubated in 384-well plates at 37 degrees C for 0, 5, 10, 15, 30 and 60 min. At each time point, 10 µL of the incubation mixture was aspirated into another 384-well plate which contained cold acetonitrile (ACN) with internal standard (albendazole). All plates were centrifuged at 3000 rpm for 20 min at 4 degrees C, and the supernatants were transferred to a 384-well injection plate. Sample quantification and analysis was performed using a previously described method (Shah et al., 2016, Siramshetty et al., 2020).
1: Shah, P. et al. An Automated High-Throughput Metabolic Stability Assay Using an Integrated High-Resolution Accurate Mass Method and Automated Data Analysis Software. Drug Metab Dispos 44, 1653-1661 (2016).
2: Siramshetty et al. Retrospective assessment of rat liver microsomal stability at NCATS: data and QSAR models. Sci Rep 26;10(1):20713 (2020).

Row | Structure (SMILES) | half-life
1 | COc1ccc(C2Sc3ccccc3N(CCN(C)C)C(=O)C2OC(C)=O)cc1 (configuration not stated) | 68.1 min
2 | CCc1cc(Cl)c(OC)c(C(=O)NC[C@@H]2CCCN2CC)c1O | 13.6 min
3 | O=S(=O)(O)c1cc(I)c(O)c2ncccc12 | > 120 min
4 | CC(CN(C)C)CN1C2=C(CCCC2)SC2CCCCC21 (configuration not stated) | 14.3 min
5 | Cc1cc(C(C)Nc2ccccc2)c2nc(N3CCOCC3)cc(=O)n2c1 (configuration not stated) | 17.2 min
6 | CN1CCN(C(=O)Cc2cccn2-c2ccc(F)cc2)CC1 | > 120 min
7 | CC(CCc1ccc(O)cc1)NCC(O)c1ccc(O)cc1 (configuration not stated) | > 120 min
8 | CCOc1ccc(Nc2nc(C)c(NC(=O)c3ccc(C)cc3)c(Nc3ccc(OCC)cc3)n2)cc1 | 12.2 min
9 | [O-][n+]1cccc(CO)c1 | > 120 min
10 | O=c1cc(N2CCOCC2)oc2c(-c3cccc(F)c3)nccc12 | 34.5 min
11 | CCOCCCNC(=O)C(=O)Nc1c2c(nn1-c1ccc(OC)cc1)CSC2 | 42.3 min
12 | COc1cc2nc(Cl)nc(N)c2cc1OC | 105 min
13 | CC1(C)C(=O)C(C)(C)c2cc(C(=O)Nc3ccc(C(=O)O)cc3)ccc21 | > 120 min
14 | CNP(=O)(OC)Oc1ccc(C(C)(C)C)cc1Cl (configuration not stated) | 47.5 min
15 | CC(C)CCCC(C)N (configuration not stated) | > 120 min
16 | COc1ccc(C2c3c(oc4ccc(Cl)cc4c3=O)C(=O)N2CCCN(C)C)cc1OC (configuration not stated) | > 120 min
17 | CCOC(=O)C1(CCOc2ccccc2)CCN(Cc2ccc(O)c(Cl)c2)CC1 | 5.08 min
18 | CC(C)Cc1ccc(CC(=O)O)cc1 | > 120 min
19 | Nc1ccc(N=Nc2ccccc2)c(N)n1 | 7.45 min
20 | O=C(CCc1ccccc1)N1CCC(O)(Cn2cnc3cc(Cl)ccc3c2=O)CC1 | 3.16 min
21 | CNC(=O)O[C@H]1COc2ccc(N3CCN(C4COC4)CC3)cc2[C@@H]1NC(=O)c1ccc(F)cc1 | > 120 min
22 | CCOCc1cc(CN2CCN(c3cccc(C(F)(F)F)c3)CC2)c(O)c2ncccc12 | 12.6 min

Row | Structure (SMILES) | half-life
23 | CCOC(=O)c1c(C)nn(-c2cccc([N+](=O)[O-])c2)c1C | 2.08 min
24 | COC(=O)[C@H](Cc1cccc(C(=N)N)c1)[C@@H](C)NC(=O)c1ccc(-c2cc[n+]([O-])cc2)cc1 | > 120 min
25 | N#Cc1ccnc(Nc2cc(C3CCN(C4COC4)CC3)cc(N3CCC(F)(F)C3)n2)c1 | 29.3 min
26 | COc1ccccc1N1CCN(c2csc3ccc(Cl)cc3c2=O)CC1 | 15.7 min
27 | COc1ccc2c(c1OC)C(=O)O[C@@H]2[C@H]1c2cc3c(cc2CCN1C)OCO3 | 103 min
28 | CC(C)(N)c1ncc(-c2ccc(OC(F)(F)F)cc2)[nH]1 | > 120 min
29 | C[C@]12CCC3c4ccc(O)cc4C[C@@H](CCCCCCCCCS(=O)CCCC(F)(F)C(F)(F)F)[C@H]3[C@@H]1CC[C@@H]2O (some centres not stated) | 4.1 min
30 | CCCn1ncc(CN2CCCC(C(=O)c3cccc(OC(C)C)c3)C2)c1C (configuration not stated) | 8.9 min
31 | CCCCCC(=O)O[C@]1(C(C)=O)CC[C@H]2[C@@H]3CCC4=CC(=O)CC[C@]4(C)[C@H]3CC[C@@]21C | 1.86 min
32 | CN(C)[S+](=O)([O-])c1ccc([S+](=O)([O-])N(Cc2ccccc2)Cc2ccccn2)cc1 | 4.28 min
33 | COc1ccc(OCC(=O)Nc2cc(-c3nc4ccccc4s3)ccc2C)cc1 | 3.38 min
34 | COc1cc(-c2nn(C3CCC(N4CCN(C(C)=O)CC4)CC3)c3ncnc(N)c23)ccc1NC(=O)c1cc2ccccc2n1C (configuration not stated) | > 120 min
35 | COc1ccc(-c2nc3ccccc3c(=O)n2Cc2ccco2)cc1COc1ccc(NC(C)=O)cc1 | 1.85 min
36 | CC(=O)N1CCC(Cc2ccc(C(=O)O)cc2)CC1 | > 120 min
37 | CCN(CC)C(=O)/C(Cl)=C(\C)OP(=O)(OC)OC | > 120 min
38 | O=C(Nc1ncc([N+](=O)[O-])s1)c1cccs1 | 29 min
39 | CCOP(=S)(OCC)Oc1nc(Cl)n(C(C)C)n1 | 15.1 min
40 | O=C(O)c1cccc(-c2noc(-c3ccccc3F)n2)c1 | > 120 min
41 | Nc1ncnc2c1ncn2[C@H]1O[C@@H](C(=O)N2CCN(CC(=O)Nc3cccc4c3CNC4=O)CC2)[C@H](O)[C@@H]1O | > 120 min
42 | O=C(NOCC1CC1)c1ccc(F)c(F)c1Nc1ccc(I)cc1Cl | 11.2 min
43 | CC(C)C[C@H]1C(=O)N2CCC[C@H]2[C@]2(O)O[C@](NC(=O)[C@@H]3C=C4c5cccc6[nH]c(Br)c(c56)CC4N(C)C3)(C(C)C)C(=O)N12 (some centres not stated) | 0.89 min
44 | O=C(NC1CC1)C1CCCN1C(=O)c1cccc(-c2ccccn2)c1 (configuration not stated) | > 120 min

Row | Structure (SMILES) | half-life
45 | COc1cc(Nc2nc3ccccc3nc2NS(=O)(=O)c2ccc(NC(=O)c3ccc(C)c(OC)c3)cc2)cc(OC)c1 | > 120 min
46 | COc1cc(NS(=O)(=O)c2ccc(N)cc2)nc(OC)n1 | > 120 min
47 | Cc1ccc(Nc2nc3ccccc3c3nnc(C)n23)c(C)c1 | 6.47 min
48 | CNS(=O)(=O)c1ccc(Cc2c(-c3cccc(-c4ccccc4)c3)[nH]n(-c3nc(C(=O)O)cs3)c2=O)cc1 | > 120 min
49 | CCN1C(=O)NC(c2ccccc2)C1=O (configuration not stated) | > 120 min
50 | CCOc1cc(OCC)c(C(=O)CCC(=O)O)cc1OCC | > 120 min
51 | O=C(OC1C[C@@H]2CC3C[C@H](C1)N2CC3=O)c1c[nH]c2ccccc12 (some centres not stated) | 5.19 min
52 | CCN1CC(CCN2CCOCC2)C(c2ccccc2)(c2ccccc2)C1=O (configuration not stated) | 33.9 min
53 | CN(C(=O)c1ccc(F)cc1C(F)(F)F)C1CCN(c2nnc(-c3ccnn3C)c3ccccc23)CC1 | 30.3 min
54 | CO/N=C(\C(=O)O)c1csc(NC(=O)CCl)n1 | 11.4 min
55 | Cc1c(NC(=O)c2ccc(N3CCC(C)CC3)c([N+](=O)[O-])c2)cccc1-c1nc2ccccc2o1 | 30.7 min
56 | Cn1c(=O)c2c(nc(CN3CCN(C(=O)C4CC4)CC3)n2Cc2ccccc2Cl)n(C)c1=O | 24.1 min
57 | CN1CC(O)c2cc(N=NC(N)=O)c(O)cc21 (configuration not stated) | > 120 min
58 | COc1ccc(CN(CCN(C)C)c2ncccn2)cc1 | 8.72 min
59 | CN1CCC(=C2c3ccccc3CCc3cccnc32)CC1 | > 120 min
60 | COc1cc(C(c2c(C)[nH][nH]c2=O)c2c(C)[nH][nH]c2=O)ccc1OC(=O)c1cccc(C)c1 | 2.21 min
61 | Cc1ccc(Nc2nc(C)c(NC(=O)c3ccc(C)cc3)c(Nc3ccc(C)cc3)n2)cc1 | 20.5 min
62 | Cc1cn(C[C@H](N)C(=O)O)c(=O)n(Cc2ccsc2C(=O)O)c1=O | 53.1 min
63 | N[C@@H](Cc1ccc(Oc2cc(I)c(O)c(I)c2)c(I)c1)C(=O)O | > 120 min
64 | O=C(O)CC1CCC(c2ccc(-c3ccc(Nc4ccc(C(F)(F)F)nc4)cn3)cc2)CC1 (configuration not stated) | > 120 min
65 | CCN1CCN(Cc2ccc(NC(=O)c3ccc(C)c(/C=C/c4cnc5[nH]ccc5c4OC)c3)cc2C(F)(F)F)CC1 | > 120 min
66 | CC(=O)N1CCN(C(=O)Cc2ccc(Nc3ncc(F)c(Nc4ccc(C(=O)Nc5ccccc5Cl)cc4)n3)cc2)CC1 | 15.6 min

Row | Structure (SMILES) | half-life
67 | CN1[C@@H]2CC[C@H]1CC(OC(=O)c1c[nH]c3ccccc13)C2 (some centres not stated) | > 120 min
68 | Cc1ccc(S(=O)(=O)NC(=O)NN2CCCCCC2)cc1 | > 120 min
69 | COc1ccc(-c2oc3cc(OC)ccc3c2C(=O)c2ccc(C#N)cc2)cc1 | 20.6 min
70 | COc1cc2ncnc(Nc3ccc(F)c(Cl)c3)c2cc1NC(=O)C=CCN1CCCCC1 | > 120 min
71 | CN(C)C(CCOc1cccc2ccccc12)c1ccccc1 (configuration not stated) | 12.8 min
72 | CC(C)(C)c1ccc(CNC(=S)NCc2ccc(NS(C)(=O)=O)c(F)c2)cc1 | 43 min
73 | CC(C)c1nn(-c2c(Cl)cccc2Cl)c2nc(Cc3ccc(OCCO)cc3)[nH]c(=O)c12 | 32.2 min
74 | CC1CCN(C(c2ccc(F)cc2)c2ccc(C(C)C(=O)O)cc2-c2ccc(C(F)(F)F)cc2)CC1 (configuration not stated) | 115 min
75 | CCCCN(CCCC)CCC(O)c1cc2c(Cl)cc(Cl)cc2c2cc(C(F)(F)F)ccc12 (configuration not stated) | 29.5 min
76 | N#Cc1c[nH]c2c(C(=O)N3CCN(CCc4ccc(F)cc4)CC3)cccc12 | 29.8 min
77 | NC(=O)c1ccccc1Nc1ccnc(Nc2cccc(O)c2)n1 | 21.8 min
78 | CNC(=O)[C@H](Cc1ccccc1)NC(=O)[C@H](CC(C)C)[C@H](CSc1cccs1)C(=O)NO | 110 min
79 | O=C1NC(=Nc2ccccc2F)S/C1=C\c1ccc(C(=O)O)cc1 | 52.4 min
80 | CCN1CCC[C@H]1CNC(=O)c1c(O)c(Cl)cc(Cl)c1OC | > 120 min
81 | COc1ccc(-n2nc(CCC(=O)N(C)O)cc2-c2ccc(Cl)cc2)cc1 | 39.1 min
82 | Cc1ccc(S(=O)(=O)NC2CCC(C(C)(C)C)CC2)cc1 (configuration not stated) | 3.92 min
83 | CCC(=O)NS(=O)(=O)c1ccc(-c2c(-c3ccccc3)noc2C)cc1 | 48.5 min
84 | C/C(=C(/OCCOc1ccc(Cl)cc1)c1ccc(Cl)cc1Cl)n1ccnc1 | 10.1 min
85 | CC(C)(O)c1ccc2c(c1)ncn2-c1cccc(-c2ccccc2C#N)c1 | > 120 min
86 | Cc1ccc(NC(=O)Nc2cccs2)c(C)c1 | 23.8 min
87 | Nc1ccccc1NC(=O)c1ccc(CNc2nccc(-c3cccnc3)n2)cc1 | > 120 min

Reference: PubChem BioAssay AID1963597 (National Center for Advancing Translational Sciences (NCATS), 2024)
